What was measured:
[1] = system: GPDH (glycerol-3-phosphate-dehydrogenase); test: Measurement of GPDH activity in differentiating 3T3-L1 preadipocytes; type: cell-based; details: FIG. 5; compared with no addition
Experimental: (§1) Cell Culture: 3T3-L1 preadipocytes were incubated using DMRM culture medium containing 10% (by volume) of FBS at 37° C. in the presence of CO2 (5%). In this connection, as the FBS, one which had been inactivated at 56° C. for 30 minutes was used. As the cells, those which were unused (naïve) and which had been kept in liquid nitrogen were used in each experiment. On a 96 well microplate, 5×10^4 cells of the 3T3-L1 preadipocytes were seeded per well and pre-incubated for 48 hours.
Then, the culture medium was removed from the wells, and DMEM culture medium containing insulin (10 μg/ml), dexametazone (0.25 μg/ml) and IBMX (0.5 mM) was added to the wells, and incubation was further performed for 48 hours. Thereafter, differentiation to adipocytes was induce while repeating medium replacement at intervals of 4 days with the use of DMEM culture medium containing 5 μg/ml of insulin only. In this procedure, fucoxanthin was added to the culture medium to examine influence thereof on the differentiation induction.
Measurement of GPDH Activity: For measurement of GPDH (glycerol-3-phosphate-dehydrogenase) activity, a GDP H activity measuring kit (manufactured by Hokudo Co., Ltd.) was used. Specifically, 3T3-L1 preadipocytes were pre-incubated on a 24 well microplate) for 48 hours, and then differentiation to adipocytes was induced in the same manner as described above. […]

KK-Ay mice = test: Animal experiments: KK-Ay mice fed feed containing fucoxanthinol; type: in vivo
Experimental: Animals and Feed: For the animal experiments, KK-Ay mice (female; 3-week-old) were used. Feed for the experiments was prepared in accordance with AIN-93G composition (formulation). Amount of lipid in the feed was 13.5%. In the case where fucoxanthinol was added, 0.2% of the lipid in the feed was replaced with fucoxanthinol. After the preparation, the feed was immediately vacuum-packed and stored at −20° C. or lower until feeding.
Breeding and Analysis: Preliminary Breeding was conducted for a week using the feed for the control group, and individuals which grew with no problem were divided into groups each consisting of 6 mice in such a manner that there were no substantial unevennesses in body weight among the groups. With respect to each of the groups, two mice were housed and bred in each plastic cage spread with sterilized wood chips to cover the floor. In the breeding cage, temperature and humidity were kept at 23±1° C. and 50%, respectively, and each of light and dark periods was 12 hours. The mice were allowed to freely take (ingest) the feed and water, and the breeding with each of the feeds for the experiments was carried out for 24 days.
After termination of the feeding period, the mice were fasted for 12 hours. Thereafter, blood samples were collected from neck vessels in the presence of EDTA under anesthesia with (ethyl) ether. After the collection of blood samples, organs were immediately harvested and washed well with physiological saline to sufficiently clear blood therefrom. Livers were weighed and then stored at −40° C. or lower until subjected to analyses. Leptin concentrations and blood-sugar levels in blood were measured using a commercially available kit.

3T3-L1 preadipocytes = test: Quantitative determination of intracellular lipids with Oilred O during differentiation of 3T3-L1 preadipocytes to adipocytes; type: cell-based; details: FIG. 3 and FIG. 4; added to culture medium during differentiation induction
Experimental: as §1
Then, the culture medium was removed from the wells, and DMEM culture medium containing insulin (10 μg/ml), dexametazone (0.25 μg/ml) and IBMX (0.5 mM) was added to the wells, and incubation was further performed for 48 hours. Thereafter, differentiation to adipocytes was induce while repeating medium replacement at intervals of 4 days with the use of DMEM culture medium containing 5 μg/ml of insulin only. […]
Quantitative Determination of Intracellular Lipids with Oilred O: The cells incubated in the 96 well microplate were immobilized with formalin, and then an oilred O solution was added thereto to stain lipids in the cells. […] Subsequently, isopropanol was added to each of the wells to elute the pigment (colorant), and absorbance, i.e., optical density at 490 nm was measured using a microplate reader.

adipocytes (fat cells) = details: according to Non-Patent Document 2; cited from earlier work
[2] = system: large intestine cancer cells; details: according to Non-Patent Document 1; cited from earlier work
[3] = 24 days feeding, versus control group
[4] = after 24 days feeding, versus control group

Compound | relative GPDH activity (relative amount of adipocytes, preadipocytes = 1) [1] | weight of visceral fat per 100 g of body weight (KK-Ay mice; FIG. 6, 0.2% of feed lipid replaced, 24 days, versus control group) | leptin concentration in blood (KK-Ay mice; FIG. 7, 24 days feeding, versus control group) | blood sugar level (KK-Ay mice; FIG. 8, 24 days feeding, versus control group) | fat (lipid) accumulation associated with differentiation of 3T3-L1 preadipocytes to adipocytes (optical density at 490 nm, Oilred O) (3T3-L1 preadipocytes) | differentiation suppressing activity on adipocytes (adipocytes (fat cells)) | antiproliferative activity / proliferation of large intestine cancer cells [2] | amount of feed intake (KK-Ay mice; [3]) | increase in body weight (KK-Ay mice; [3]) | weight of hepatic lipid (KK-Ay mice; [4]) | weight of liver (KK-Ay mice; [4]) | weight of small intestine (KK-Ay mice; [4]) | abnormalities in feed intake, glossiness of hair or action (KK-Ay mice; breeding period)
C\C(C=C=C1C(C)(C)C[C@H](O)C[C@@]1(C)O)=C/C=C/C(C)=C/C=C/C=C(C)/C=C/C=C(\C)C(=O)C[C@@]12O[C@]1(C)C[C@@H](O)CC2(C)C [fucoxanthinol] | lowered | significantly reduced | significantly reduced | reduced | markedly controlled | – | – | – | – | – | – | – | –
fucoxanthin | no significant differences | – | – | – | apparently lower than that of fucoxanthinol | has differentiation suppressing activity on adipocytes | far stronger antiproliferative activity than that of troglytazone | no significant differences | no significant differences | no significant differences | no significant differences | no significant differences | no abnormalities
